In patent publication EP0171342A1, “Substituted 2-(1-amino-akylidenyl)1,3-indane diones, process for their preparation and their therapeutical use” (priority 1984, dated 1986):
Values after ≈ are worked out from the molar mass of the structure shown. Where two headings read alike, the source gives them in different places.

Key:
[1] = tested on: rat Wistar soumis à une surcharge saline; experiment: Diuretic activity in selected Wistar rats given a saline overload (modified Wiebelhaus test); format: in vivo
Protocol: L'activité diurétique des produits selon l'invention a été également déterminée chez le rat Wistar soumis à une surcharge saline selon une modification du test décrit par Wiebelhaus et coll., Fed. Proc., 1960, 19, 364, en procédant à une sélection des animaux. A la dose de 20 mg/kg, les COR4003, COR4008, COR4009, COR4010, COR4011, COR4012, COR4014, COR4016, COR4021, COR4025 augmentent l'excrétion urinaire volumétrique mesurée au bout de 6 heures de respectivement 56, 54, 65, 95, 73, 54, 33, 40, 99 et 92 %. L'excrétion urinaire du sodium augmente de respectivement 56, 24, 42, 59, 43, 33, 29, 43, 31, 83, 26, 99, 40 % toujours à cette dose pour les COR4003, COR4008, COR4009, COR4010, COR4011, COR4012, COR4014, COR4016, COR4017, COR4021, COR4023, COR4025 et COR4026. Le rapport Na/K demeure la plupart du temps inchangé. Testé dans les mêmes conditions le furosémide, administré à la dose de 20 mg/kg entraine 63% d'augmentation de l'excrétion urinaire volumétrique et 53% d'augmentation de l'excrétion urinaire du sodium.

souris = experiment: Acute toxicity (mortality, LD50) in mice; format: in vivo; conditions: mouse
[2] = tested on: poumon de cobaye isolé perfusé; experiment: Bronchodilator activity: isolated perfused guinea pig lung contracted by methacholine; conditions: flow of Tyrode solution, lung contracted by 0,05 microg/ml methacholine; read-out: concentration qui augmente ce débit de 50%
Excerpt: L'activité bronchodilatatrice a été déterminée in vitro par la mesure du débit d'une solution de Tyrode à travers un poumon de cobaye isolé perfusé, contracté par l'addition au fluide de perfusion de 0,05 microg/ml de méthacholine. Les COR3760, COR3789, COR3792, COR4003, COR4008, COR4010 et COR4014 utilisés respectivement aux concentrations de 50, 50, 100, 10, 50, 50 et 10 microg/ml augmentent ce débit de 50%. L'aminophylline entraine cette même activité à la concentration de 100 microg/ml.

[3] = tested on: segments d'iléon de cobaye isolés; experiment: Anticholinergic activity: acetylcholine-induced contractions of isolated guinea pig ileum; conditions: Cavia porcellus; contractions induced by 0,1 microg/ml acetylcholine; read-out: concentration qui inhibe ces contractions de 80%
Excerpt: L'activité anticholinergique a été appréciée par la mesure des contractions induites par 0,1 microg/ml d'acétylcholine sur des segments d'iléon de cobaye isolés. Les COR3760, COR3789, COR3792, COR4003, COR4008, COR4010, COR4014 utilisés respectivement aux concentrations de 50, 25, 25, 50, 25, 10, 25 microg/ml inhibent ces contractions de 80%.

[4] = tested on: oedème induit par l'injection intraplantaire de carragénine chez le rat; experiment: Anti-inflammatory activity: carrageenan paw oedema in rats; format: in vivo; conditions: oral 1 h before carrageenan, measured 3 h after
Protocol: L'activité antiinflammatoire a été déterminée chez le rat par la mesure de l'inhibition de l'oedème induit par l'injection intraplantaire de 0,1 ml d'une suspension à 1% de carragénine chez le rat. Les produits à tester sont administrés par voie orale lh avant l'injection de carragénine et la mesure est réalisée 3h après cette injection. Les COR3789, COR3792, COR4003, COR4008 et COR4010 administrés à 10b mg/kg entrainent respectivement 43, 42, 41, 38 et 39% d'inhibition. Administré à 200 mg/kg, le COR3773 entraine 53% d'inhibition. L'aspirine administrée dans les mêmes conditions à 150 mg/kg entraine 40% d'inhibition de l'oedème.

[5] = Acute toxicity (mortality, LD50) in mice; format: in vivo; conditions: in vivo, mouse, read-out: mortalité
[6] = tested on: rat soumis à une surcharge hydrique; experiment: Diuretic activity in rats given a water overload, oral; format: in vivo; conditions: read-out: facteur multipliant l'excrétion urinaire du sodium
Protocol: L'activité diurétique a été déterminée sur plusieurs modèles expérimentaux. Chez le rat soumis à une surcharge hydrique, administrés par voie orale à la dose de 20 mg/kg, le COR3760, le COR3789, le COR3792, le COR4002, le COR4003, le COR4009, le COR4010, le COR4012 et le COR4014 multiplient l'excrétion urinaire du sodium par respectivement un facteur 2,9 - 3,1 - 5,9 - 2,6 - 7,2 - 3,5 - 3,8 - 2,9 - 2,4. Administrés à la dose de 10 mg/kg, dans les mêmes conditions, les COR3760, COR3789, COR3792, COR4003 et COR4010 multiplient l'excrétion sodique par respectivement 2,3 - 2,9 - 2,8 - 2,4 et 2,5. La spironolactone multiplie quant à elle l'excrétion sodique d'un facteur 3,6 à la dose de 20 mg/kg. Administré à la dose de 5 mg/kg dans les mêmes conditions, le COR3792 multiplie l'excrétion sodique par 3,3. Administré par voie orale chez le rat ou la souris soumis à une surcharge saline, le COR3760 augmente l'excrétion urinaire volumétrique mesurée à la sixième heure de respectivement 49, 119 et 134% chez la souris et 28, 84 et 116% chez le rat après administration de 10, 20, et 40 mg/kg. Le COR3760 a été administré par voie orale au rat soumis à une surcharge hydrique et l'excrétion urinaire volumétrique, le sodium et le potassium excrétés ont été mesurés sur une période de 6 heures; ces paramètres ont varié de respectivement +17%, +102%, +165% à 10 mg/kg, +19%, +147%, +180% à 20 mg/kg et +36%, +415% et +239% à 40 mg/kg; le rapport Na/K passe de 0,56 chez les animaux témoins à 0,4 à 10 mg/kg, 0,49 à 20 mg/kg et 0, 8 à 40 mg/ kg. Au cours d'une seconde expérimentation, le COR3760 a entrainé des variations de +19%, +157%, +70% à 40 mg/kg, +19%, +319%, +90% à 60 mg/kg et +29%, +472% et +77% à 80 mg/kg; le rapport Na/K passe de 0,59 chez les animaux témoins à 0,88 à 40, 1,15 à 60 et 1,88 à 80 mg/kg.

[7] = 6 h, read-out: augmentation de l'excrétion urinaire volumétrique mesurée au bout de 6 heures
[8] = read-out: augmentation de l'excrétion urinaire du sodium
[9] = rat, water overload, oral, 20 mg/kg

| Compound | change in vivo at 20 mg/kg [1, 7] [%] | change in vivo at 20 mg/kg [1, 8] [%] | mortalité (souris; intraperitoneal, 200 mg/kg) | mortalité (souris; oral, 300 mg/kg) | other results |
| --- | --- | --- | --- | --- | --- |
| CC(NCC(C)C)=C1C(=O)c2ccccc2C1=O [COR4008, (Isobutylamino-1 éthylidényl)-2 indanedione-1,3] | 54 | 24 | aucune mortalité | aucune mortalité | EC50 [2]: 50 µg/mL (≈ 206 µM); IC80 [3]: 25 µg/mL (≈ 103 µM); inhibition de l'oedème ([4]; dose 10b mg/kg [sic]): 38% |
| CNC(C)=C1C(=O)c2ccc([N+](=O)[O-])cc2C1=O [COR4002, Nitro-5 (méthylamino-1 éthylidényl)-2 indanedione-1,3] | – | – | – | – | mortality ([5]; ip, intraperitoneal, 200 mg/kg): 100%; mortality ([5]; oral, 300 mg/kg): 100%; mortalité (souris; intraperitoneal, 100 mg/kg): aucune mortalité; mortalité (souris; oral, 100 mg/kg): aucune mortalité; response vs control in vivo at 20 mg/kg [6, 9]: 260% |
| CCC(NC(C)C)=C1C(=O)c2ccccc2C1=O [COR4025, (Isopropylamino-1 propylidényl)-2 indanedione-1,3] | 92 | 99 | – | – | – |
| CC(NC(C)(C)C)=C1C(=O)c2ccccc2C1=O [COR4001, (Tertiobutylamino-1 éthylidényl)-2 indanedione-1,3] | – | – | – | – | mortality ([5]; ip, intraperitoneal, 200 mg/kg): 100%; mortality ([5]; oral, 300 mg/kg): 100%; mortalité (souris; intraperitoneal, 100 mg/kg): aucune mortalité; mortalité (souris; oral, 100 mg/kg): aucune mortalité |
| CC(NC1CCCCC1)=C1C(=O)c2ccccc2C1=O [COR4013, (Cyclohexylamino-1 éthylidényl)-2 indanedione-1,3] | – | – | aucune mortalité | aucune mortalité | – |
| CC(NC(C)C)=C1C(=O)c2cc(Cl)c(Cl)cc2C1=O [COR4016, Dichloro-5,6 (isopropylamino-1 éthylidényl)-2 indanedione-1,3] | 40 | 43 | aucune mortalité | aucune mortalité | – |
| CC(=O)NS(=O)(=O)c1cc2c(cc1Cl)C(=O)C(=C(C)NC(C)C)C2=O [COR4015, N-acétylsulfonamido-6 chloro-5 (isopropylamino-1 éthylidényl)-2 indanedione-1,3] | – | – | aucune mortalité | aucune mortalité | – |
| CCNC(C)=C1C(=O)c2ccc(Cl)cc2C1=O [COR3774, Chloro-5 (éthylamino-1 éthylidène)-2 indanedione-1,3] | – | – | aucune mortalité | aucune mortalité | – |
| Cn1c(=O)c2[nH]cnc2n(C)c1=O [aminophylline, reference compound] | – | – | – | – | EC50 [2]: 100 µg/mL (≈ 555 µM) |
| CC(=O)S[C@@H]1CC2=CC(=O)CC[C@]2(C)[C@H]2CC[C@@]3(C)[C@@H](CC[C@@]34CCC(=O)O4)[C@H]12 [spironolactone, reference compound] | – | – | – | – | response vs control in vivo at 20 mg/kg ([6]; Rattus norvegicus, po): 360% |
| CC(=C1C(=O)c2ccccc2C1=O)N(C)C [COR3788, (Diméthylamino-1 éthylidène)-2 indanedione-1,3] | – | – | – | – | mortality ([5]; ip, intraperitoneal, 200 mg/kg): 100%; mortality ([5]; oral, 300 mg/kg): 100%; mortalité (souris; intraperitoneal, 100 mg/kg): aucune mortalité |
| CC(NC1CC1)=C1C(=O)c2ccccc2C1=O [COR4014, (Cyclopropylamino-1 éthylidényl)-2 indanedione-1,3] | 33 | 29 | aucune mortalité | aucune mortalité | EC50 [2]: 10 µg/mL (≈ 44 µM); IC80 [3]: 25 µg/mL (≈ 110 µM); response vs control in vivo at 20 mg/kg [6, 9]: 240% |
| NS(=O)(=O)c1cc(C(=O)O)c(NCc2ccco2)cc1Cl [furosémide, reference compound] | 63 | 53 | – | – | – |
| CCNC(C)=C1C(=O)c2cc(Cl)c(Cl)cc2C1=O [COR4007, Dichloro-5,6 (éthylamino-1 éthylidényl)-2 indanedione-1,3] | – | – | aucune mortalité | aucune mortalité | – |
| CC(NC1CCCC1)=C1C(=O)c2ccccc2C1=O [COR4012, (Cyclopentylamino-1 éthylidényl)-2 indanedione-1,3] | 54 | 33 | aucune mortalité | aucune mortalité | response vs control in vivo at 20 mg/kg [6, 9]: 290% |
| CNC(=C1C(=O)c2ccccc2C1=O)c1ccccc1 [COR4004, (Alpha-méthylamino benzylidényl)-2 indanedione-1,3] | – | – | aucune mortalité | aucune mortalité | – |
| CC(=O)Oc1ccccc1C(=O)O [aspirine, reference compound] | – | – | – | – | inhibition de l'oedème ([4]; 150 mg/kg): 40% |
| CC(C)NC(=C1C(=O)c2ccccc2C1=O)C(C)C [COR4023, (Isopropylamino-1 isobutylidényl)-2 indanedione-1,3] | – | 26 | – | – | – |
| CC(N)=C1C(=O)c2ccccc2C1=O [COR4026, (Amino-1 éthylidényl)-2 indanedione-1,3] | – | 40 | – | – | – |
| CNC(C)=C1C(=O)c2cc(Cl)c(Cl)cc2C1=O [COR4006, Dichloro-5,6 (méthylamino-1 éthylidényl)-2 indanedione-1,3] | – | – | aucune mortalité | aucune mortalité | – |
| CCCC(NC)=C1C(=O)c2ccccc2C1=O [COR4017, (Méthylamino-1 butylidényl)-2 indanedione-1,3] | – | 31 | – | – | – |
| CCNC(CC)=C1C(=O)c2ccccc2C1=O [COR4021, (Ethylamino-1 propylidényl)-2 indanedione-1,3] | 99 | 83 | – | – | – |
